The results in this text go back to publication PMC12163827, “Identification of Novel Leishmania donovani Nucleoside Hydrolase Inhibitors from Banisteriopsis laevifolia Using Affinity Selection-Mass Spectrometry” (ACS Omega, 2025).

What all share (format): biochemical
The target in experiment [1] is T1, Leishmania donovani nucleoside hydrolase (LdNH) (Leishmania donovani, UniProt Q8WQX2).
T1 construct: gene iunh
T1 sequence (Q8WQX2 1-314): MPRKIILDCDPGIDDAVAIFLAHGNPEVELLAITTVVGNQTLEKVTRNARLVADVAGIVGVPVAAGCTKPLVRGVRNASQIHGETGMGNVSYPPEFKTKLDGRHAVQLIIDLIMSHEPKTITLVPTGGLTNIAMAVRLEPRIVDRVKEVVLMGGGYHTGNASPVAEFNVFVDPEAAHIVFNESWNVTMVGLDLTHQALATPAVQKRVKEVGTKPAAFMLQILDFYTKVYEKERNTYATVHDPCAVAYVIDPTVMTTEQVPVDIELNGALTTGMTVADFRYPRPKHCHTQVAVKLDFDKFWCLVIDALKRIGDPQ
Put plainly: HPLC-DAD inosine hydrolysis assay with immobilized purified LdNH plus […] Triton X-100; also AS-MS (affinity ratio […]).

For experiment [2], the target named is T1, Leishmania donovani nucleoside hydrolase (LdNH). Described as above. This is another data set of the same source.
For experiment [3] the target is unchanged. Put plainly: HPLC-DAD inosine hydrolysis assay with immobilized LdNH, single concentration […] with Triton X-100; also AS-MS (affinity ratio […]). As to conditions: read-out: inhibition at 100 μmol/L (with Triton X-100) (%).
The target is the same in experiment [4]. The description is as above. As to conditions: read-out: inhibition at 100 μmol/L (with Triton X-100) (%). This is another data set of the same source.

Each structure is given as a SMILES string. Read-outs that look alike come from different tables or passages of the source.

Consider `O=c1c(O[C@@H]2O[C@H](CO)[C@@H](O)[C@H](O)[C@H]2O)c(-c2ccc(O)cc2)oc2cc(O)cc(O)c12` [astragalin], for which the 50% inhibitory concentration (IC50) in experiment [1] came to 41.6 ± 8.9 µM.
For `O=c1c(O[C@@H]2O[C@H](CO)[C@@H](O)[C@H](O)[C@H]2O)c(-c2ccc(O)c(O)c2)oc2cc(O)cc(O)c12` [isoquercetin], the IC50 in experiment [2] turned out to be 40.2 ± 16.6 µM.
As to `O=c1cc(-c2ccc(O)c(O)c2)oc2c([C@@H]3O[C@H](CO)[C@@H](O)[C@H](O)[C@H]3O)c(O)cc(O)c12` [orientin], the inhibition at 100 µM in experiment [3] was 30.4%.
Consider `C[C@@H]1O[C@@H](OC[C@H]2O[C@@H](Oc3c(-c4ccc(O)c(O)c4)oc4cc(O)cc(O)c4c3=O)[C@H](O)[C@@H](O)[C@@H]2O)[C@H](O)[C@H](O)[C@H]1O` [rutin], for which the inhibition at 100 µM in experiment [4] stood at 61.2%.
